Laboratory results published in patent US20250213647A1, “CHEMOKINE RECEPTORS AND ALPHA1 ADRENERGIC RECEPTORS/VASOPRESSIN RECEPTORS 1A HETEROMERS AS DRUG TARGETS FOR DISEASE” (UNIVERSITY OF SOUTH FLORIDA, priority 2022, published 2025).

Assays:
[1] = biological target: T1, CCR2 (Homo sapiens, UniProt P41597); experiment: Gαi activation assay (TRUPATH BRET), HEK293T cells transfected with CCR2 plus pcDNA3 (CCR2 alone); assay type: cell-based; conditions: cells transfected with CCR2 alone; 10 μM PE or PT; FIG. 4B, 4E
T1 sequence (P41597 whole entry): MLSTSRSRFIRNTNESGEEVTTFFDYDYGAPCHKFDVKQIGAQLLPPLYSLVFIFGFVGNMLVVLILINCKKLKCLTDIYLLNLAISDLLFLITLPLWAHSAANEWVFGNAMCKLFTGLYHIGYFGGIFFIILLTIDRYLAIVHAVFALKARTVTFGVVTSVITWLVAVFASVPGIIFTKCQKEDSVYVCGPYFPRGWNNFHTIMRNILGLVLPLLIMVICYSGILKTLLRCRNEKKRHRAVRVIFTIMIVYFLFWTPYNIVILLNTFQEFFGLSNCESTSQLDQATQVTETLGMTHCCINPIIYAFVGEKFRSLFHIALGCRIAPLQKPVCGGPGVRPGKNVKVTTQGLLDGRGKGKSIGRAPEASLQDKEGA
Experimental: (§1) HEK293T cells were plated in a 6-well plate and transfected with 0.2 μg each of Gαi1-Rluc8, Gβ3 and Gγ9-GFP2 (Trupath) together with 0.2 μg of mouse or human CCR2 with either pcDNA3.1 or α1b-AR. One day after transfection, cells were trypsinized and replated to 96-well poly-L lysine precoated plates. After overnight incubation, cells were replaced with 0.1% glucose/PBS. Prolume Purple (NanoLight Tech.) or coelenterazine 400a in a final concentration of 5 μM were added in experiments with human or mouse CCR2, respectively, and incubated at room temperature for 3 min. Ligands at various concentrations were added to cells and incubated at room temperature for 5 min before luminescence was measured at 410 nm and 515 nm. […] The BRET changes were calculated by subtracting the BRET signal of untreated cells.

[2] = biological target: T2, α1b-AR:CCR2 heteromer (Homo sapiens, UniProt P35368+P41597); experiment: Gαi activation assay (TRUPATH BRET), HEK293T cells transfected with CCR2 plus α1b-AR; assay type: cell-based; conditions: for Gαi1 activation by the ligand alone: cells transfected with α1b-AR alone, CCR2 alone or CCR2 plus α1b-AR, FIG. 4A
T2 construct: expressed in transfected cells; host or cells: HEK293T
T2 sequence (P41597 whole entry, one chain of several): as the sequence (P41597 whole entry) above
Experimental: as §1

[3] = biological target: T1, CCR2; experiment: PRESTO-Tango β-arrestin recruitment assay, HTLA cells with CCR2-Tango plus pcDNA3; assay type: cell-based; conditions: absence of α1b-AR; FIG. 5A
Experimental: (§2) The assays were performed as described previously (Albee, 2017; Gao, 2022; Albee, 2018; Eby, 2017; Cheng, 2017). HTLA cells were seeded in a 6-well plate and transfected with 750 ng FLAG-CCR2-Tango together with 750 ng pcDNA3.1 or HA-α1b-AR using TransIT-2020 Transfection Reagent. The next day, cells (75,000 cells/well) were plated onto poly-L-Lysine pre-coated 96-well plates and allowed to attach to the plate surface for at least 4 hours prior to treatment. Cells were treated with receptor ligands at the concentrations indicated in the figure legends for 2 h and then replaced with fresh full medium and incubated overnight at 37° C., 5% CO2 in a humidified environment. The following morning, medium was replaced with a 100 μL 1:10 mixture of Bright-Glo (Promega) and PBS. Plates were then incubated at room temperature for 10 min before measuring luminescence on a Biotek Synergy II plate reader. Relative luminescence units (RLU) are expressed as fold changes of RLU vs unstimulated cells.

[4] = system: CCR8; experiment: Chemotaxis assay, THP-1 cells toward CCL1 (CCR8-mediated); assay type: cell-based, human
Experimental: (§3) Cell migration was measured employing the Neuroprobe (Gaithersburg, MD, USA) ChemoTx® Disposable Chemotaxis System. A 96-well Boyden-chamber (30 μL/well, 8 μm pores, 1×10^5 pores/cm^2 pore density) was selected for all chemotaxis experiments. Bottom wells of the Boyden-chamber were loaded with 30 μL of test substances at various concentrations. Top wells of the membrane were loaded with 25 μL of THP-1 cells, THP-1_ADRA1B^KO, wild type THP-1 cells after clonal expansion (=control for THP-1_ADRA1B^KO) or freshly isolated monocytes (200 cells/μL). THP-1 cells were suspended in depleted RPMI1640 (0.5% HyClone™ fetal bovine serum, Sigma); Freshly isolated monocytes were suspended in RPMI1640 (0.5% human platelet poor plasma, Sigma). After 3 hours, transmigrated cells were counted utilizing the Cytation 1 plate reader (BioTek) by direct imaging in high contrast bright field (4×) and post-imaging particle analyses with Gen5 (v3.05) Imaging & Microscopy Software (BioTek). The chemotactic index (CI) was calculated as the ratio of cells that transmigrated in the presence versus the absence of the test solutions.

[5] = system: CR heteromerization partners of α1B/D-ARs (CCR1, CCR2, CXCR4); experiment: Chemotaxis assay, THP-1 cells, CR heteromerization partners of α1B/D-ARs taken together; assay type: cell-based, human; conditions: for chemotactic dose-responses for CCL23, CCL2 and CXCL12 in the presence of the ligand: 10 μM of phenylephrine or phentolamine, FIG. 17G-17I
Experimental: as §3

[6] = system: CXCR4; conditions: previous observations (Gao, 2018); cited from earlier work
[7] = biological target: T1, CCR2; experiment: Chemotaxis assay, THP-1 cells toward CCL2 (CCR2-mediated); assay type: cell-based; set-up: host or cells: THP-1; conditions: CCL2 10 nM, mean±SE, read-out: IC50 for inhibition of CCR2-mediated chemotaxis
Experimental: as §3

[8] = biological target: T1, CCR2; set-up: host or cells: THP-1; conditions: previous finding (Enten, 2022); cited from earlier work
[9] = biological target: CCR2:α1b-AR heteromers (Homo sapiens, UniProt P35368+P41597); experiment: PRESTO-Tango β-arrestin recruitment assay, HTLA cells with CCR2-Tango plus α1b-AR; assay type: cell-based; set-up: Tango module of the TANGO vector (C); expressed in transfected cells; host or cells: HTLA
Sequence of CCR2:α1b-AR heteromers (P41597 whole entry, one chain of several): as the sequence (P41597 whole entry) above
Experimental: as §2

[10] = biological target: T3, heteromerization between α1b-AR and CCR2 (Homo sapiens, UniProt P35368); experiment: Saturation BRET to assess receptor heterodimerization (α1b-AR-RlucII / CCR2-EYFP, HEK293T); conditions: 10 μM ligand, 5 min; for BRETmax: FIG. 3B; for BRET50 values: FIG. 3C
T3 sequence (P35368 1-520): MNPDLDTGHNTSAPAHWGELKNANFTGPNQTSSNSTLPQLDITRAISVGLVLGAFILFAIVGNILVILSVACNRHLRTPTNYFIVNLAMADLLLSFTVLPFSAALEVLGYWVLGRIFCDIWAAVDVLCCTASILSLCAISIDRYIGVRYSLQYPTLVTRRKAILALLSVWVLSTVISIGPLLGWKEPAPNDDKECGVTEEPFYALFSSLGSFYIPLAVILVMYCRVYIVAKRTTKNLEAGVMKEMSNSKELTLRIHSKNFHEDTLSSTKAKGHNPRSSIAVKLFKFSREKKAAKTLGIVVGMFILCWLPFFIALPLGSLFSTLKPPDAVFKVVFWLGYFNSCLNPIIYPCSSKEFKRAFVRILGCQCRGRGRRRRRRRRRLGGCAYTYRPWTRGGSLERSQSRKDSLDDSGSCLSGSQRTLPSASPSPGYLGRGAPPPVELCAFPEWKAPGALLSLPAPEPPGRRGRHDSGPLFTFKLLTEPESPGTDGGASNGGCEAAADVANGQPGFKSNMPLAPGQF

Cc1ccc(N(CC2=NCCN2)c2cccc(O)c2)cc1 [phentolamine]
effect on CCL2-induced Gαi1 activation [1]: did not affect
bottom plateau, CCL2-induced Gαi activation in the presence of the ligand ([2]; CCL2 plus 10 μM PT, FIG. 4F): −0.033±0.002
Gαi1 activation by the ligand alone [2]: did not activate Gαi1
β-arrestin recruitment to CCR2-Tango by the ligand [3]: did not induce
CCR8-mediated chemotaxis [4]: did not affect
chemotactic dose-responses for CCL23, CCL2 and CXCL12 in the presence of the ligand [5]: inhibited chemotaxis over the complete range of chemokine concentrations
CXCR4-mediated chemotaxis of primary human vascular smooth muscle cells [6]: inhibit
IC50 [7]: 2.7 ± 3.5 nM
binding affinity of CCR2 for CCL2 [8]: did not affect
effect on CCL2-induced β-arrestin recruitment to CCR2 ([9]; 1 μM PT, FIG. 5B): did not affect
β-arrestin recruitment to CCR2-Tango by the ligand ([9]; cells co-transfected with CCR2-Tango plus α1b-AR, FIG. 5A): had no effect
BRETmax [10]: did not affect
BRET50 values [10]: significantly increased

CNC[C@H](O)c1cccc(O)c1 [phenylephrine]
effect on CCL2-induced Gαi1 activation [1]: did not affect
bottom plateau, CCL2-induced Gαi activation in the presence of the ligand ([2]; CCL2 plus 1 μM NE, FIG. 4D): −0.031±0.002
bottom plateau, CCL2-induced Gαi activation in the presence of the ligand ([2]; CCL2 plus 10 μM PE, FIG. 4C): −0.03±0.002
Gαi1 activation by the ligand alone [2]: did not activate Gαi1
β-arrestin recruitment to CCR2-Tango by the ligand [3]: did not induce
CCR8-mediated chemotaxis [4]: did not affect
chemotactic dose-responses for CCL23, CCL2 and CXCL12 in the presence of the ligand [5]: inhibited chemotaxis over the complete range of chemokine concentrations
inhibition of chemotaxis mediated via CR heteromerization partners of α1B/D-ARs ([5]; FIG. 17A): 50-55%
CXCR4-mediated chemotaxis of primary human vascular smooth muscle cells [6]: inhibit
IC50 [7]: 7.5 ± 7.7 nM
binding affinity of CCR2 for CCL2 [8]: did not affect
efficacy to induce β-arrestin recruitment to CCR2 ([9]; agonist alone): 2.4±0.14 fold change RLU
increase of the efficacy of CCL2 to recruit β-arrestin to CCR2 ([9]; co-stimulated with CCL2 and 1 μM PE vs CCL2 alone): 3 fold
efficacy of CCL2 to recruit β-arrestin to CCR2 in the presence of the ligand ([9]; co-stimulated with CCL2 and 1 μM PE, FIG. 5B): 130±12 fold change RLU
BRETmax [10]: did not affect
BRET50 values [10]: significantly increased
